The numbers were not newly measured in patent US6846837B2, “Topical administration of basic antifungal compositions to treat fungal infections of the nails” (priority 2002, dated 2005), which cites them from elsewhere.

Molecules are shown by their SMILES.

Test in data set [1]: not given
This is another data set of the same source.

For data set [2] the following is noted: forms Ca(OH)2.
Data set [3] relates to onychomycosis. As to conditions: standard oral treatment.

Consider `CC(C)CCN` [Isopentylamine], for which the pKa – broadly, the pH at which an ionisable group is half protonated – was “pKa = 10.6”.
As to `CNC` [Dimethylamine], the pKa is reported as 10.73.
For the molecule `O=B[O-].[Na+]` [Sodium metaborate], the “pH of Aqueous Solution, in words (alkalinity)” value in data set [1] is reported as “Strongly alkaline”.
With `O=P([O-])([O-])O.[K+].[K+]` [Potassium phosphate, dibasic], the “pH of Aqueous Solution, in words (alkalinity)” value in data set [1] is “Aqueous solution is slightly alkaline”.
For `[O]=[Ca]` [Calcium oxide], the solubility in water result in data set [2] is given as “Soluble in water, Form Ca(OH)2”.
With `CN(C)C` [Trimethylamine], the pKa is recorded as 9.81.
Consider `CN(C/C=C/C#CC(C)(C)C)Cc1cccc2ccccc12` [terbinafine], for which the “disease-free nails, share of cases” value in data set [3] is recorded as 35-50%.
